In a melting point compilation (Tetko et al.; mined from patent text by program, amines drawn as free bases though some values may be those of a salt) one finds melting point data, which are given here for 36 compounds.

The structures appear in SMILES notation.

Usually melting point stands for the temperature, or range, at which the solid turns liquid. Compound `Cn1nnnc1SCCCn1cc(C2=C(c3cn(C)c4ccccc34)C(=O)NC2=O)c2ccccc21` had a melting point of 95 to 97 °C.
Next, `CSc1nncc(-c2cccc(Cl)c2)n1`: 79 to 81 °C; `O=C1C2=C(CCCC2)C(=O)N1c1ccc(F)cc1F`: 73 to 74 °C.
`COC(=O)C=Cc1cc([N+](=O)[O-])ccc1Cl` yielded a melting point of 159 to 162 °C.
With `COC(=O)COc1ccc(NC(=O)CCCCCOCc2ccccc2)cc1` the figure was 64.6 to 67 °C; with `N#Cc1nn(-c2c(Cl)cc(C(F)(F)F)cc2Cl)c(N)c1-c1ccc(Cl)cc1`, 235 to 237 °C.
With `CC1(c2ccc(N)cc2F)CNC1=O` (stereo unspecified) the figure was 125 to 127 °C.
The compound `O=C(Cc1ccccc1F)c1ccc(I)cc1` displayed a melting point of 112 to 114 °C.
In the case of `COC(CNC(=O)CCl)OC`, the melting point was 33 to 36 °C.
With `Cc1ccc(C(CCN(C(C)C)C(C)C)(CCN(C(C)C)C(C)C)C(N)=O)cc1` the figure was 97 to 100 °C; with `COc1ccc2c(c1)CCC1C2CCC2(C)C(=NNS(=O)(=O)c3ccccc3)CCC12` (stereo unspecified), 183 to 185 °C.
With `COc1cccc2c1C(=O)c1nc(-c3ccccc3)sc1C2=O` the figure was 245 °C.
With `CCN1C(=O)C(C)(C)C(=O)N(C)c2cc(OCCCN3C(=O)C(c4ccccc4)Cc4ccccc43)ccc21` (stereo unspecified) the figure was 100 to 105 °C.
In turn, `COc1cc(OC)nc(Oc2nccc(-c3ccccc3)c2C(=O)O)n1` displayed a melting point of 165 to 169 °C.
In turn, `c1ccc(CN2CCCCC2)c(CN2CCCCC2)c1` yielded a melting point of 86 to 88 °C.
With `CNc1cccc(OCc2ccccc2)c1N` the figure was 79 to 81 °C; with `COc1ccccc1N1CCN([C@@H]2Cc3c(cccc3OC)C[C@H]2O)CC1` (relative stereo), 138 to 141 °C.
Next, `CCOC(=O)CCc1cc(-c2cc3ccccc3c(=O)o2)ccc1O`: 179 to 180 °C.
With `COC(=O)C1=C(C)Nc2ccccc2N(C(C)=O)C1c1cccc([N+](=O)[O-])c1` (stereo unspecified) the figure was 231 to 232 °C; with `O=S1(=O)CCON=C1c1ccc(Cl)s1`, 113 to 114 °C; with `CC(C)c1ccc(-c2ccc(Sc3ccccc3)s2)cc1`, 61 to 63 °C.
For the compound `C#CCNC(=C[N+](=O)[O-])SC`, the melting point fell in the range of 131 to 132 °C.
The compound `COCCOC(=O)c1ccc(C(C(N)=O)C(C)c2ccccc2N2CCCCC2)cc1` (stereo unspecified) came in with a melting point of 155 to 157 °C.
Next, `O=C(O)c1ccc(C(=O)NOCCCc2ccccc2)cc1`: 171 to 173 °C; `CSc1ccc(CC(=O)C(=O)O)cc1`: 165 to 167 °C.
In the case of `CCc1ccccc1-c1cccc(Br)c1OCc1cccc(C(=O)NCCO)c1`, the melting point lay in the range of 82.2 to 84.2 °C.
`O=C(Cc1c(Br)cnc2c(NC(=O)c3c(Cl)cccc3Cl)cccc12)NCc1ccccn1`: the melting point is 197 to 199 °C.
Next, `CC(C)(C)[Si](Oc1ccc(Br)cc1)(c1ccccc1)c1ccccc1`: 56 °C; `CCCc1c(OCCCSc2ccc(C(=O)CCCO)cc2)ccc(C(C)=O)c1O`: 73 to 75 °C.
Next, `CC1SC(c2cccnc2)N(c2ccccc2F)C1=O` (stereo unspecified): 112 °C; `CCCNC(=O)C(Cc1ccc2c(c1)c(Cc1ccc(C(=O)OC)cc1OC)cn2CCC)C(C)C` (stereo unspecified): 123 to 125 °C; `CC(=O)c1cc(N2CCOCC2)ccc1NC(=O)c1cccc(OCc2ccccc2)c1`: 140 to 142 °C.
Next, `CNC(=O)c1ccc(C(=O)Nc2cccc(C3=NC(C)(C)Cc4cc(OC)c5c(c43)CC(C)(C)O5)c2)cc1`: 310 to 312 °C.
`CC1(C)Oc2ccc(C#N)cc2C(n2nc(O)ccc2=O)C1O` (stereo unspecified) registered a melting point of 251 to 252 °C.
Next, `CCCc1c(-c2ccc(C(=O)OC)cc2)oc2cc(S(=O)(=O)Cl)ccc2c1=O`: 128 °C; `Fc1ccc(-c2cc3ccccc3[nH]c2=S)cc1`: 259 to 262 °C.
